# Values quoted from earlier work in article PMC7449315 (Journal for Immunotherapy of Cancer, 2020).
# Settings: early phase I studies, single agent; ref 28 30 31; cited from earlier work
row,SMILES,best overall response
1,NS(=O)(=O)NCCNc1nonc1C(=NO)Nc1ccc(F)c(Br)c1 [epacadostat],stable disease
2,Cn1cc(C[C@@H](N)C(=O)O)c2ccccc21 [indoximod],stable disease
3,O[C@H](C[C@H]1c2c(F)cccc2-c2cncn21)[C@H]1CC[C@H](O)CC1 [navoximod],stable disease
